US20240247080A1, “GLP1/GIP/NPY2 RECEPTOR TRIPLE AGONISTS” (Boehringer Ingelheim International GmbH, priority 2022, published 2024)
Read-outs that look alike come from different tables or passages of the source. Starred links: 1 amine or outer side, 2 acyl side, 3 side chain; linkers in the order of their positions; H or OH if unused. Non-standard residues stand in square brackets, D forms with d. Groups on a side chain read outwards from the residue. No end group written: not given here. *: point of attachment. C20 diacid = O=C(O)CCCCCCCCCCCCCCCCCCC(=O)*; C18 diacid = O=C(O)CCCCCCCCCCCCCCCCC(=O)*; γGlu = O=C(O)[C@H](CCC(=O)[*:2])N[*:1]; εLys = N[C@@H](CCCCN[*:1])C(=O)[*:2]; AEEA = NCCOCCOCC(=O)O; Aib = CC(C)(N)C(=O)O; Ahx = NCCCCCC(=O)O

Experiments:
hGLP1R = molecular target: T1, hGLP1R (Homo sapiens, UniProt P43220); assay: hGLP1R CreLuc reporter gene assay in 0.5% and 100% plasma; format: cell-based; conditions: CreLuc reporter gene assay
T1 construct: expressed in transfected cells; host or cells: HEK-293 cells carrying a CRE-luciferase reporter gene
T1 sequence (P43220 24-463): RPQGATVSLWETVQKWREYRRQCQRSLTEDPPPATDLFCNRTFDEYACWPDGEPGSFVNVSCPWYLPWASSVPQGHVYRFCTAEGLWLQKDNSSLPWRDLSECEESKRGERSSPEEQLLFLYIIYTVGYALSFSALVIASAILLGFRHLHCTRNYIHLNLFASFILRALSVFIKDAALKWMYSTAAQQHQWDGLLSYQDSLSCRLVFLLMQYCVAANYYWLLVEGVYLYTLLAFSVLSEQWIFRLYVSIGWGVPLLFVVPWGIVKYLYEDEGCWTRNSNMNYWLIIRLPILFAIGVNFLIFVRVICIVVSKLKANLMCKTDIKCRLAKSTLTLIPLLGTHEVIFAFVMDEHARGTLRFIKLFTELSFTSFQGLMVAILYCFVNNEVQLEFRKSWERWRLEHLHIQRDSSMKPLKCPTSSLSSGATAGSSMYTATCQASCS
Description: (§1) Example 1: hGLPR/hGIPR/hNPY2R CreLuc Assay in 0.5% and 100% Plasma
(§2) CHO and HEK-293 recombinant cell lines express a luciferase reporter gene under control of the cAMP responsive element (CRE). As a second recombinant protein the GLP-1 and NPY2 receptors were expressed in the reporter gene HEK cells, and the GIP receptor was expressed in the reporter gene CHO cells, respectively. Stimulation of these recombinant cells with an agonist leads to an increase of intracellular cAMP levels. In the presence of cAMP, the transcription factor CRE binding protein (CREB) binds to the CRE and to the CREB binding protein (CBP), which leads to transcription of the luciferase reporter gene. Peptides upon serial-dilution in 100% DMSO were transferred into 384-well assay plates with 5 μl pre-dispensed assay buffer (1×HBSS, 20 mM HEPES, pH7.4 supplemented with 0.5% human plasma) using acoustic dispensing on a Labcyte ECHO. Cryo-preserved transgenic reporter gene cells were thawed in assay buffer. 20 μl (10.000 cells/well) were added to the plate with the peptides and incubated for 4 hours at 37° C. in a humidified incubator. Following incubation, assay plates are equilibrated to room temperature, followed by addition of 25 μl of Bright-GIo™ Luciferase reagent, incubation at room temperature for 10 minutes and analysis of luminescence (Envision Reader). Concentration response evaluation of compounds was performed with 8 concentrations of peptides (covering four decades). EC50 values were calculated by non-linear regression using sigmoid concentration-response with variable slope. The same assays were run in the presence of 100% plasma with no additional buffer constituents.

hGIPR = molecular target: T2, hGIPR (Homo sapiens, UniProt P48546); assay: hGIPR CreLuc reporter gene assay in 0.5% and 100% plasma; format: cell-based; conditions: CreLuc reporter gene assay
T2 construct: expressed in transfected cells; host or cells: CHO cells carrying a CRE-luciferase reporter gene
T2 sequence (P48546 22-466): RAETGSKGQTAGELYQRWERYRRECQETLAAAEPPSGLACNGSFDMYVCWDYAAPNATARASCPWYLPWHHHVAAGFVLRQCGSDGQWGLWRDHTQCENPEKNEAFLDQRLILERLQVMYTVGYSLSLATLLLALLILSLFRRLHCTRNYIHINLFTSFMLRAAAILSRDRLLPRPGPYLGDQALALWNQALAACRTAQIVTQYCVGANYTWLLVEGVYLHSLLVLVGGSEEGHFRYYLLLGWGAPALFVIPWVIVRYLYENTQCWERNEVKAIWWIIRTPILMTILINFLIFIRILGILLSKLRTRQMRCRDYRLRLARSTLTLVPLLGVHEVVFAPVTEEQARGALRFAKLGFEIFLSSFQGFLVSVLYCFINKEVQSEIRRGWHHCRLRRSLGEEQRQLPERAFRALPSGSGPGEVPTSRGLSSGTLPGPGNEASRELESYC
Description: as §1, §2

[1] = 0.5% human plasma, read-out: hGLP1R 0.5% hP
[2] = 0.5% human plasma, read-out: hGIPR 0.5% hP
[3] = 100% human plasma, read-out: hGIPR 100% hP

EC50 (hGLP1R; [1])	EC50 (hGIPR; [2])	EC50 (hGIPR; [3])	EC50 (hGLP1R; 100% human plasma, read-out: hGLP1R 100% hP)	Substance
0.35 nM	0.38 nM	1.58 nM	–	H-Y[Aib]EGTFTSDYSI[Aib]LEKQAQ[Aib]EFVQWLIK([AEEA-AEEA-Glu-Glu-Glu-C18 diacid])GGPSEGASLRHYYNWLTRQRY-NH2 [Compound 157, Y-Aib-E-G-T-F-T-S-D-Y-S-I-Aib-L-E-K-Q-A-Q-Aib-E-F-V-Q-W-L-I-K(1,3)-GGPSEGASLRHYYNWLTRQRY-NH2.C18DA-E-E-E-OEG-OEG(1,2)]
0.08 nM	0.17 nM	1.01 nM	–	H-Y[Aib]EGTFTSDYSI[Aib]LEKQAQ[Aib]AFVQWLIK([γGlu-γGlu-γGlu-γGlu-C18 diacid])GGPSEGASLRHYYNWLTRQRY-NH2 [Compound 268, Y-Aib-E-G-T-F-T-S-D-Y-S-I-Aib-L-E-K-Q-A-Q-Aib-A-F-V-Q-W-L-I-K(1,3)-GGPSEGASLRHYYNWLTRQRY-NH2.C18DA-gGlu-gGlu-gGlu-gGlu(1,2)]
0.2 nM	0.25 nM	1.61 nM	–	H-Y[Aib]EGTFTSDYSI[Aib]LEKQAQ[Aib]AFVQWLIK([Ahx-γGlu-γGlu-γGlu-γGlu-γGlu-C18 diacid])GGPEEGASLRHYYNWLTRQRY-NH2 [Compound 162, Y-Aib-E-G-T-F-T-S-D-Y-S-I-Aib-L-E-K-Q-A-Q-Aib-A-F-V-Q-W-L-I-K(1,3)-GGPEEGASLRHYYNWLTRQRY-NH2.C18DA-gGlu-gGlu-gGlu-gGlu-gGlu-AHX(1,2)]
0.07 nM	0.25 nM	0.73 nM	–	H-Y[Aib]EGTFTSDYSI[Aib]LEKQAQ[Aib]AFVQWLIK([εLys-γGlu-γGlu-γGlu-γGlu-γGlu-γGlu-C20 diacid])GGPSSGVSLRHYYNWLTRQRY-NH2 [Compound 47, Y-Aib-E-G-T-F-T-S-D-Y-S-I-Aib-L-E-K-Q-A-Q-Aib-A-F-V-Q-W-L-I-K(1,3)-GGPSSGVSLRHYYNWLTRQRY-NH2.C20DA-gGlu-gGlu-gGlu-gGlu-gGlu-gGlu-eLys(1,2)]

Further lines, the substance ahead of its results:

Substance	EC50 (hGLP1R; [1])	EC50 (hGIPR; [2])	EC50 (hGIPR; [3])	EC50 (hGLP1R; 100% human plasma, read-out: hGLP1R 100% hP)
H-Y[Aib]EGTFTSDYSI[Aib]LEKQAQ[Aib]AFVEWLIK([γGlu-γGlu-γGlu-γGlu-γGlu-γGlu-C20 diacid])GGPSSGASLRHYYNWLTRQRY-NH2 [Compound 235, Y-Aib-E-G-T-F-T-S-D-Y-S-I-Aib-L-E-K-Q-A-Q-Aib-A-F-V-E-W-L-I-K(1,3)-GGPSSGASLRHYYNWLTRQRY-NH2.C20DA-gGlu-gGlu-gGlu-gGlu-gGlu-gGlu(1,2)]	0.12 nM	0.34 nM	2.81 nM	–
Y[Aib]EGTFTSDYSI[Aib]LEKQAQ[Aib]AFVQWLIK([AEEA-AEEA-γGlu-γGlu-γGlu-C18 diacid])GGPSEGASLRHYYNWLTRQRY-NH2 [Compound 266, Y-Aib-E-G-T-F-T-S-D-Y-S-I-Aib-L-E-K-Q-A-Q-Aib-A-F-V-Q-W-L-I-K(1,3)-GGPSEGASLRHYYNWLTRQRY-NH2.C18DA-gGlu-gGlu-gGlu-OEG-OEG(1,2)]	0.1 nM	0.13 nM	0.65 nM	2.21 nM
Y[Aib]EGTFTSDYSI[Aib]LEKQAQ[Aib]AFIEWLIK([AEEA-AEEA-γGlu-γGlu-γGlu-γGlu-C18 diacid])GGPSEGASLRHYYNWLTRQRY-NH2 [Compound 258, Y-Aib-E-G-T-F-T-S-D-Y-S-I-Aib-L-E-K-Q-A-Q-Aib-A-F-I-E-W-L-I-K(1,3)-GGPSEGASLRHYYNWLTRQRY-NH2.C18DA-gGlu-gGlu-gGlu-glu-OEG-OEG(1,2)]	0.17 nM	0.16 nM	1.23 nM	–
H-Y[Aib]EGTFTSDYSI[Aib]LEKEKQ[Aib]AFVEWLIK([εLys-γGlu-γGlu-γGlu-γGlu-γGlu-γGlu-C20 diacid])GGPSSGASLRHYYNWLTRQRY-NH2 [Compound 69, Y-Aib-E-G-T-F-T-S-D-Y-S-I-Aib-L-E-K-E-K-Q-Aib-A-F-V-E-W-L-I-K(1,3)-GGPSSGASLRHYYNWLTRQRY-NH2.C20DA-gGlu-gGlu-gGlu-gGlu-gGlu-gGlu-eLys(1,2)]	1.48 nM	0.8 nM	–	–
